Source: PubChem BioAssay (NCI)
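Five compound concentrations were applied to cells in 96-well plates for 48 hours; endpoints were derived by simple linear interpolation of the resulting dose-response curve. Abbreviation: GI50, concentration required for 50% inhibition of growth. TGI: concentration producing complete growth inhibition.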

Columns and labels:
Assay in all cases: NCI-60 cell line screen, 48 h
NCI-H226 lung = system: NCI-H226 lung
TK-10 renal = system: TK-10 renal
CCRF-CEM leukemia = system: CCRF-CEM leukemia
HT29 colon = system: HT29 colon
A549 NSCLC = system: A549 NSCLC
SK-OV-3 ovarian = system: SK-OV-3 ovarian
MOLT-4 leukemia = system: MOLT-4 leukemia
SK-MEL-28 melanoma = system: SK-MEL-28 melanoma
MDA-MB-231 breast = system: MDA-MB-231 breast
HCC-2998 colon = system: HCC-2998 colon

SMILES | TGI (NCI-H226 lung) | TGI (TK-10 renal) | TGI (CCRF-CEM leukemia) | TGI (HT29 colon) | TGI (A549 NSCLC) | TGI (SK-OV-3 ovarian) | TGI (MOLT-4 leukemia) | TGI (SK-MEL-28 melanoma) | TGI (MDA-MB-231 breast) | TGI (HCC-2998 colon) | GI50 (NCI-H226 lung) | GI50 (TK-10 renal) | GI50 (CCRF-CEM leukemia) | GI50 (HT29 colon) | GI50 (HCC-2998 colon) | GI50 (A549 NSCLC) | GI50 (SK-OV-3 ovarian) | GI50 (MOLT-4 leukemia) | GI50 (SK-MEL-28 melanoma) | GI50 (MDA-MB-231 breast)
CC(CC(=O)O)C(C(=O)O)C(=O)O (configuration not stated) | > 100 µM | > 100 µM | > 100 µM | > 100 µM | > 100 µM | > 100 µM | > 100 µM | > 100 µM | > 100 µM | – | – | – | – | – | – | – | – | – | – | –
Cc1ccc(Cn2c(C)nc3c2C(=O)c2ccccc2C3=O)cc1 | 33.7 µM | 80.8 µM | > 100 µM | > 100 µM | 34.9 µM | 45.6 µM | > 100 µM | > 100 µM | – | > 100 µM | – | – | – | – | – | – | – | – | – | –
O=C(NC(=O)c1cn(CCNCCO)c(=O)[nH]c1=O)OCc1ccccc1 | > 100 µM | > 100 µM | > 100 µM | > 100 µM | > 100 µM | > 100 µM | > 100 µM | > 100 µM | – | – | – | – | – | – | – | – | – | – | – | –
O=C(N/N=C1/C(=O)N(c2ccc(Cl)cc2Cl)C(=O)C(=O)C1c1nc2ccccc2o1)c1ccccc1O (configuration not stated) | > 100 µM | > 100 µM | > 100 µM | > 100 µM | > 100 µM | > 100 µM | > 100 µM | 71 µM | – | – | – | – | – | – | – | – | – | – | – | –
CCCCCCC[CH2][Sn]1([CH2]CCCCCCC)[O]C(=O)c2cccnc2[S]1 | > 100 µM | > 100 µM | > 100 µM | > 100 µM | > 100 µM | > 100 µM | > 100 µM | > 100 µM | – | > 100 µM | > 100 µM | > 100 µM | > 100 µM | > 100 µM | > 100 µM | > 100 µM | > 100 µM | > 100 µM | > 100 µM | –
COc1ccc(C(O)c2nccn2C)c(OC)c1 (configuration not stated) | > 100 µM | > 100 µM | > 100 µM | > 100 µM | > 100 µM | > 100 µM | > 100 µM | > 100 µM | – | > 100 µM | – | – | – | – | – | – | – | – | – | –
COC(=O)[C@]1(C)CCCC2(C)C1CC[C@H]1C=C(C)[C@H]3CCC12C3 (some centres not stated) | > 100 µM | > 100 µM | > 100 µM | > 100 µM | > 100 µM | > 100 µM | > 100 µM | > 100 µM | – | > 100 µM | – | – | – | – | – | – | – | – | – | –
c1ccc(SC2CCSc3ccccc3C2Sc2ccccc2)cc1 (configuration not stated) | > 100 µM | > 100 µM | > 100 µM | > 100 µM | > 100 µM | – | > 100 µM | – | – | > 100 µM | – | – | – | – | – | – | – | – | – | –
CCc1c(OC(C)=O)c2c(NC3OC(COC(C)=O)C(OC(C)=O)C(OC(C)=O)C3OC(C)=O)nc(OC)nc2oc1=O (configuration not stated) | > 100 µM | > 100 µM | > 100 µM | > 100 µM | > 100 µM | > 100 µM | > 100 µM | – | – | > 100 µM | – | – | – | – | – | – | – | – | – | –
O=C(CSc1nnc(-c2ccc(N=Cc3ccc(Cl)cc3)cc2)o1)Nc1ccc(Cl)cc1 | > 100 µM | > 100 µM | > 100 µM | > 100 µM | > 100 µM | > 100 µM | > 100 µM | > 100 µM | – | – | – | – | – | – | – | – | – | – | – | –
Cc1ccc(S(=O)(=O)N/N=C/c2oc(-c3ccncc3)c(-c3ccncc3)c2[N+](=O)[O-])cc1 | > 100 µM | > 100 µM | > 100 µM | > 100 µM | > 100 µM | > 100 µM | > 100 µM | > 100 µM | – | > 100 µM | – | – | – | – | – | – | – | – | – | –
COC1[C@@H](OC(C)=O)[C@@H](NC(=O)C(Cl)(Cl)Cl)C(I)[C@@H](N2C(=O)c3ccccc3C2=O)[C@H]1OC (some centres not stated) | > 100 µM | – | > 100 µM | > 100 µM | > 100 µM | – | > 100 µM | > 100 µM | – | – | – | – | – | – | – | – | – | – | – | –
O=C(O)[C@H](NS(=O)(=O)c1ccc2ccccc2c1)c1ccccc1 | – | – | > 100 µM | > 100 µM | – | > 100 µM | > 100 µM | > 100 µM | – | > 100 µM | – | – | – | – | – | – | – | – | – | –
Ic1ccc(-n2nnnc2-c2cnoc2-c2ccccc2)cc1 | > 78.9 µM | > 82.3 µM | > 48.8 µM | > 100 µM | > 100 µM | > 100 µM | > 100 µM | > 100 µM | > 91.2 µM | – | 43 µM | 41.5 µM | 1.21 µM | > 100 µM | – | > 58.4 µM | > 65.4 µM | 70 µM | > 62.2 µM | > 51.9 µM
Cc1ccc(NC(=O)C2C(=O)N(c3ccc(C)c(C)c3)C(=O)C2N=N)cc1C (configuration not stated) | > 100 µM | > 100 µM | – | > 100 µM | > 100 µM | > 100 µM | > 100 µM | > 100 µM | – | > 100 µM | – | – | – | – | – | – | – | – | – | –
CCc1cccc(C)c1NC(=O)C(=O)Cc1nc2ccccc2o1 | > 100 µM | > 100 µM | > 100 µM | > 100 µM | – | > 100 µM | > 100 µM | > 100 µM | – | > 100 µM | – | – | – | – | – | – | – | – | – | –
CCOC(=O)C1(c2ccccc2)CCC(=O)CC1 | > 100 µM | > 100 µM | > 100 µM | > 100 µM | > 100 µM | > 100 µM | > 100 µM | > 100 µM | – | > 100 µM | – | – | – | – | – | – | – | – | – | –
COc1ccc(-c2cc(-c3ccccc3)c(C#N)c(=O)n2C2OC(CO)C(O)C(O)C2O)cc1 (configuration not stated) | > 100 µM | > 100 µM | > 100 µM | > 100 µM | > 100 µM | > 100 µM | > 100 µM | > 100 µM | – | > 100 µM | – | – | – | – | – | – | – | – | – | –
O=c1[nH]c(=O)n(C2CC(O)C(CO)O2)cc1CO (configuration not stated) | > 100 µM | > 100 µM | > 100 µM | > 100 µM | > 100 µM | > 100 µM | > 100 µM | > 100 µM | – | > 100 µM | > 100 µM | > 100 µM | > 100 µM | > 100 µM | > 100 µM | > 100 µM | > 100 µM | > 100 µM | > 100 µM | –
C[C@H]1NC(=O)C2CCCCN2C(=O)CN(C)C(=O)CNC(=O)C2CCCCN2C(=O)[C@@H](NC(=O)c2nc3ccccc3cc2O)[C@@H](C)NC(=O)C2CCCCN2C(=O)CN(C)C(=O)CNC(=O)[C@@H]2CCCCN2C(=O)C1NC(=O)c1nc2ccccc2cc1O (some centres not stated) | 0.383 µM | > 100 µM | 5.16 µM | > 100 µM | > 100 µM | > 100 µM | 7.03 µM | 0.465 µM | – | 0.479 µM | – | – | – | – | – | – | – | – | – | –
COc1ccc(NC(=O)/C(N=O)=C(/C)O)cc1 | > 100 µM | > 100 µM | > 100 µM | > 100 µM | > 100 µM | > 100 µM | > 100 µM | > 100 µM | – | > 100 µM | – | – | – | – | – | – | – | – | – | –
